Where two headings read alike, the source gives them in different places.
Test: Pharmacokinetics of Compound 1 in combination with MK-3475 in subjects with various cancers
Assay type: in vivo, human
Conditions: human, plasma, oral; for tmax: read-out: tmax; for concentration at 8 day (cycle 1): read-out: Cmin
Procedure: The subjects were not limited to a specific cancers and study include subjects with various cancers. […] One treatment cycle consisted of 21 days. […] Additional subjects were enrolled in a cohort to achieve the minimum of 3 evaluable subjects if dropouts or dose interruptions or reductions occur that result in a subject being non-evaluable for DLTs. […] An additional safety cohort was opened at 100 mg BID in parallel to 300 mg BID being tested. This may also be limited to subjects with melanoma, NSCLC, or specific cancer types from among those included in Phase 1. The RP2D was selected from the evaluated safety expansions.
If a dose was missed by more than 4 hours, that dose was skipped and was resumed at the scheduled time.
Pharmacokinetic samples were obtained at the visits of Cycle 1 Day 1, Cycle 1 Day 8 and Cycle 2 Day 1. […] The exact date and time of the PK blood draws were recorded in the eCRF along with the date and time of the last dose of study drug and details of the last meal preceding the blood draw.
The planned PK time points were used for preliminary PK analyses.

[1] = 100 mg BID, Diagnosis DLBCL, steady state C1D8, individual values of 2 subjects
[2] = 100 mg BID, Diagnosis GU, steady state C1D8, mean ± SD
[3] = 100 mg BID, Diagnosis NSCLC PD-L1 High, steady state C1D8, mean ± SD

Work on `NS(=O)(=O)NCCNc1nonc1C(=NO)Nc1ccc(F)c(Br)c1` [Compound 1, 4-({2-[(aminosulfonyl)amino]ethyl}amino)-N-(3-bromo-4-fluorophenyl)-N′-hydroxy-1,2,5-oxadiazole-3-carboximidamide] yielded an AUC(0-t) (100 mg BID, All diagnoses, steady state C1D8, geometric mean, read-out: AUC0-12 h (converted)) of 4.26 µM·h, a Cmax (100 mg BID, All diagnoses, steady state C1D8, mean ± SD) of 1100 ± 467 nM and an AUC(0-t) (100 mg BID, All diagnoses, steady state C1D8, mean ± SD, read-out: AUC0-12 h (converted)) of 4.62 ± 2.14 µM·h. The Cmax [1] was 883 nM, the AUC(0-t) (100 mg BID, Diagnosis DLBCL, steady state C1D8, individual values of 2 subjects, read-out: AUC0-12 h (converted)) was 5.32 µM·h and the tmax [1] was 4 h. The Cmax (100 mg BID, Diagnosis GU, steady state C1D8, geometric mean) was 1030 nM, the AUC(0-t) (100 mg BID, Diagnosis GU, steady state C1D8, geometric mean, read-out: AUC0-12 h (converted)) was 4.41 µM·h and the Cmax [2] was 1100 ± 400 nM. For the same compound, the AUC(0-t) (100 mg BID, Diagnosis GU, steady state C1D8, mean ± SD, read-out: AUC0-12 h (converted)) was 4.98 ± 3.01 µM·h, the concentration at 8 day (cycle 1) [2] was 154 ± 203 nM and the Cmax (100 mg BID, Diagnosis MEL, steady state C1D8, geometric mean) was 945 nM. It also gave an AUC(0-t) (100 mg BID, Diagnosis MEL, steady state C1D8, geometric mean, read-out: AUC0-12 h (converted)) of 3.57 µM·h, a Cmax (100 mg BID, Diagnosis MEL, steady state C1D8, mean ± SD) of 1000 ± 347 nM and an AUC(0-t) (100 mg BID, Diagnosis MEL, steady state C1D8, mean ± SD, read-out: AUC0-12 h (converted)) of 3.68 ± 0.852 µM·h. For the same compound, the AUC(0-t) (100 mg BID, Diagnosis NSCLC PD-L1 High, steady state C1D8, geometric mean, read-out: AUC0-12 h (converted)) was 4.15 µM·h, the Cmax [3] was 939 ± 549 nM and the AUC(0-t) (100 mg BID, Diagnosis NSCLC PD-L1 High, steady state C1D8, mean ± SD, read-out: AUC0-12 h (converted)) was 4.43 ± 1.81 µM·h. It also gave a concentration at 8 day (cycle 1) [3] of 159 ± 77.7 nM, a tmax (100 mg BID, Diagnosis NSCLC PD-L1 High, steady state C1D8, median) of 3 h and a Cmax (100 mg BID, Diagnosis NSCLC PD-L1 Low/NE, steady state C1D8, geometric mean) of 867 nM. It also gave an AUC(0-t) (100 mg BID, Diagnosis NSCLC PD-L1 Low/NE, steady state C1D8, geometric mean, read-out: AUC0-12 h (converted)) of 4.3 µM·h, a Cmax (100 mg BID, Diagnosis NSCLC PD-L1 Low/NE, steady state C1D8, mean ± SD) of 879 ± 156 nM and an AUC(0-t) (100 mg BID, Diagnosis NSCLC PD-L1 Low/NE, steady state C1D8, mean ± SD, read-out: AUC0-12 h (converted)) of 4.35 ± 0.828 µM·h. It also gave a Cmax (100 mg BID, Diagnosis OC, steady state C1D8, geometric mean) of 1110 nM, an AUC(0-t) (100 mg BID, Diagnosis OC, steady state C1D8, geometric mean, read-out: AUC0-12 h (converted)) of 4.34 µM·h and a Cmax (100 mg BID, Diagnosis OC, steady state C1D8, mean ± SD) of 1200 ± 487 nM. It also gave an AUC(0-t) (100 mg BID, Diagnosis OC, steady state C1D8, mean ± SD, read-out: AUC0-12 h (converted)) of 4.66 ± 2.11 µM·h, a Cmax (100 mg BID, Diagnosis SCCHN, steady state C1D8, geometric mean) of 821 nM and an AUC(0-t) (100 mg BID, Diagnosis SCCHN, steady state C1D8, geometric mean, read-out: AUC0-12 h (converted)) of 3.81 µM·h. For the same compound, the Cmax (100 mg BID, Diagnosis SCCHN, steady state C1D8, mean ± SD) was 987 ± 612 nM, the AUC(0-t) (100 mg BID, Diagnosis SCCHN, steady state C1D8, mean ± SD, read-out: AUC0-12 h (converted)) was 4.29 ± 2.3 µM·h and the Cmax (100 mg BID, Diagnosis TNBC, steady state C1D8, geometric mean) was 1150 nM. The AUC(0-t) (100 mg BID, Diagnosis TNBC, steady state C1D8, geometric mean, read-out: AUC0-12 h (converted)) was 4.69 µM·h, the Cmax (100 mg BID, Diagnosis TNBC, steady state C1D8, mean ± SD) was 1210 ± 433 nM and the AUC(0-t) (100 mg BID, Diagnosis TNBC, steady state C1D8, mean ± SD, read-out: AUC0-12 h (converted)) was 5.01 ± 2.09 µM·h. For the same compound, the Cmax (100 mg BID, Dose Reduction By C4D1 subjects (Table 13), steady state C1D8, geometric mean) was 953 nM, the AUC(0-t) (100 mg BID, Dose Reduction By C4D1 subjects (Table 13), steady state C1D8, geometric mean, read-out: AUC0-12 h (converted)) was 4.42 µM·h and the Cmax (100 mg BID, Dose Reduction By C4D1 subjects (Table 13), steady state C1D8, mean ± SD) was 1040 ± 551 nM. The AUC(0-t) (100 mg BID, Dose Reduction By C4D1 subjects (Table 13), steady state C1D8, mean ± SD, read-out: AUC0-12 h (converted)) was 5.1 ± 3.59 µM·h, the Cmax (100 mg, All diagnoses, first dose, geometric mean) was 830 nM and the AUC(0-t) (100 mg, All diagnoses, first dose, geometric mean, read-out: AUC0-t) was 2.63 µM·h. It also gave a Cmax (100 mg, All diagnoses, first dose, mean ± SD) of 937 ± 469 nM, an AUC(0-t) (100 mg, All diagnoses, first dose, mean ± SD, read-out: AUC0-t) of 2.87 ± 1.19 µM·h and an AUC(0-t) (100 mg, Cohort 3, 100 mg BID, steady state C1D8, geometric mean, read-out: AUC0-12 h (converted)) of 3.67 µM·h. The Cmax (100 mg, Cohort 3, 100 mg BID, steady state C1D8, mean ± SD) was 956 ± 497 nM, the AUC(0-t) (100 mg, Cohort 3, 100 mg BID, steady state C1D8, mean ± SD, read-out: AUC0-12 h (converted)) was 3.91 ± 1.35 µM·h and the Cmax (100 mg, Cohort 3, 100 mg, first dose, geometric mean) was 521 nM. For the same compound, the AUC(0-t) (100 mg, Cohort 3, 100 mg, first dose, geometric mean, read-out: AUC0-t) was 1.89 µM·h, the Cmax (100 mg, Cohort 3, 100 mg, first dose, mean ± SD) was 632 ± 508 nM and the AUC(0-t) (100 mg, Cohort 3, 100 mg, first dose, mean ± SD, read-out: AUC0-t) was 2.09 ± 1.15 µM·h. It also gave a tmax (100 mg, Cohort 3, 100 mg, first dose, median) of 4 h, an AUC(0-t) (100 mg, Cohort 5, 100 mg BID, steady state C1D8, geometric mean, read-out: AUC0-12 h (converted)) of 3.53 µM·h and a Cmax (100 mg, Cohort 5, 100 mg BID, steady state C1D8, mean ± SD) of 905 ± 421 nM. It also gave an AUC(0-t) (100 mg, Cohort 5, 100 mg BID, steady state C1D8, mean ± SD, read-out: AUC0-12 h (converted)) of 3.79 ± 1.43 µM·h, a Cmax (100 mg, Cohort 5, 100 mg, first dose, geometric mean) of 787 nM and an AUC(0-t) (100 mg, Cohort 5, 100 mg, first dose, geometric mean, read-out: AUC0-t) of 2.46 µM·h. It also gave a Cmax (100 mg, Cohort 5, 100 mg, first dose, mean ± SD) of 852 ± 340 nM, an AUC(0-t) (100 mg, Cohort 5, 100 mg, first dose, mean ± SD, read-out: AUC0-t) of 2.58 ± 0.778 µM·h and a tmax (100 mg, Cohort 5, 100 mg, first dose, median) of 1.5 h. For the same compound, the Cmax (100 mg, Diagnosis DLBCL, first dose, geometric mean) was 664 nM.

Reference: US20180353483A1, “PHARMACEUTICAL COMPOSITIONS AND METHODS FOR INDOLEAMINE, 2, 3-DIOXYGENASE INHIBITION AND INDICATIONS THEREFOR” (Incyte Corporation, priority 2015, published 2018)
